Earlier results in US20090182041A1, “CONTROL OF CANCER WITH ANNONACEOUS EXTRACTS” (NATURE'S SUNSHINE PRODUCTS, INC., priority 2002, published 2009).

Key:
[1] = system: mitochondrial complex I (NADH: ubiquinone oxidoreductase); settings: substantially purified form
[2] = system: NADH oxidase found in the plasma membranes of tumor cells; settings: substantially purified form

| Molecule | inhibition of complex I in the electron transport system in mitochondria [1] | inhibition of NADH oxidase in the plasma membranes of tumor cells [2] |
| --- | --- | --- |
| CCCCCCCCCC[C@@H](O)[C@H]1CC[C@@H]([C@H]2CC[C@H]([C@H](O)CCCCCCCCCC[C@@H](O)CC3=C[C@H](C)OC3=O)O2)O1 [trilobacin] | most powerful inhibitors known | inhibit |
| asimicin | most powerful inhibitors known | inhibit |
| bullatacin | most powerful inhibitors known | inhibit |
